Read-outs that look alike come from different tables or passages of the source.
Tests used:
[1] = molecular target: human RORγt ligand binding domain (RORγt LBD) (Homo sapiens (Human), UniProt P51449); assay: RORγt ThermoFluor® assay (thermal shift binding); details: read-out: ThermoFluor® Assay, Kd
Procedure, shortened: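 His-tagged human RORγt LBD (0.065 mg/mL) with 60 μM 1,8-ANS in 100 mM Hepes pH 7.0, 10 mM NaCl, 2.5 mM GSH, 0.002% Tween-20 was heated at 1 °C/min.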

full-length human RORγt = full-length human RORγt (Homo sapiens (Human), UniProt P51449); assay: RORγt (full-length human) reporter assay, Conditions B or C; format: cell-based; details: for RORγt (FL) Reporter Assay B or C, % inhibition (value marked *): marked *: footnote not given; for inhibition at 3 µM: at 3 μM compound concentration
Procedure, shortened: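 HEK293T cells transiently co-transfected with GAL4-DBD–full-length human RORγt (nt 142-1635, NM_001001523.1) plus GAL4-firefly and CMV-Renilla luciferase reporters; compounds added 4-6 h post-transfection for 16-20 h in 1.3% FBS, 0.1% DMSO. Firefly signal normalized to DMSO and saturating reference compound, then to Renilla; IC50 from concentration plots.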

[2] = Conditions B or C, read-out: RORγt (FL) Reporter Assay B or C, IC50
[3] = read-out: RORγt (FL) Reporter Assay B or C, % inhibition
[4] = read-out: RORγt (FL) Reporter Assay B or C, IC50

Sequence of human RORγt ligand binding domain (RORγt LBD) (P51449 other isoform, or with tags, fused parts or gaps): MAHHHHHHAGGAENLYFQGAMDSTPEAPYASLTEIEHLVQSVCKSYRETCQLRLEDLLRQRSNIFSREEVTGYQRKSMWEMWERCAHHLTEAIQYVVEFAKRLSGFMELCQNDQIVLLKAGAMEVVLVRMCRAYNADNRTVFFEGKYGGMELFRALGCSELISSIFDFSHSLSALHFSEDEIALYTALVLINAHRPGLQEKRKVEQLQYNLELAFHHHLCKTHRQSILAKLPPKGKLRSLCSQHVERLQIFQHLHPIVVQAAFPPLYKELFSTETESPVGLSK
Sequence of full-length human RORγt (P51449 other isoform, or with tags, fused parts or gaps): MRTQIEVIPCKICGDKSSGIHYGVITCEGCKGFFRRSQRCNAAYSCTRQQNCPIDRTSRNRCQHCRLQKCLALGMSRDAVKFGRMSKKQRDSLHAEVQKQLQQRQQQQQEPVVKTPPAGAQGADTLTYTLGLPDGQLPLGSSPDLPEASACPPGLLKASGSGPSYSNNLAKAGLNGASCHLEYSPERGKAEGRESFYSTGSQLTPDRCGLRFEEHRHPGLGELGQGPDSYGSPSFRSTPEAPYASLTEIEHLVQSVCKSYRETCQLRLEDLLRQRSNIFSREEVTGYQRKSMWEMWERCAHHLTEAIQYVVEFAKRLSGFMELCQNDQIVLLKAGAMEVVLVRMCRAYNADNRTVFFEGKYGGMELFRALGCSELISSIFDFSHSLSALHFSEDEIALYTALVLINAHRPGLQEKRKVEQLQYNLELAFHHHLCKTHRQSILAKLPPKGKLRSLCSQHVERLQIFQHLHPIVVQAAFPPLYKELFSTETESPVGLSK

SMILES	Kd [1]	RORγt (FL) Reporter Assay B or C, % inhibition (value marked *) (full-length human RORγt; Conditions B or C)	IC50 (full-length human RORγt; [2])	inhibition at 3 µM (full-length human RORγt; [3])	IC50 (full-length human RORγt; [4])	inhibition at 0.33 µM (full-length human RORγt; at 0.33 μM compound concentration, read-out: RORγt (FL) Reporter Assay B or C, % inhibition)	inhibition at 1 µM (full-length human RORγt; at 1 μM compound concentration, read-out: RORγt (FL) Reporter Assay B or C, % inhibition)	IC50 (full-length human RORγt; RORγt (FL) Reporter Assay B or C, IC50)
CC[C@H](Nc1cc(C(F)F)c(-c2sc(C(=O)N[C@H](C)CO)nc2C(=O)N2CCC[C@@H]2C)cn1)C(F)(F)F [Example 234, 5-[4-(Difluoromethyl)-6-[[(1S)-1-(trifluoromethyl)propyl]amino]-3-pyridyl]-N-[(1R)-2-hydroxy-1-methyl-ethyl]-4-[(2S)-2-methylpyrrolidine-1-carbonyl]thiazole-2-carboxamide]	5.2 nM	116* %	42 nM	–	–	–	–	–
CC(C)(O)CNC(=O)c1nc(C(=O)N2C3CCC2CC3)c(-c2cnc(NC3CCCC3)cc2C(F)(F)F)s1 [Example 53, 4-((1s,4s)-7-Azabicyclo[2.2.1]heptane-7-carbonyl)-5-(6-(cyclopentylamino)-4-(trifluoromethyl)pyridin-3-yl)-N-(2-hydroxy-2-methylpropyl)thiazole-2-carboxamide]	5.8 nM	109* %	23 nM	–	–	–	–	–
C[C@H](Nc1cc(C(F)F)c(-c2sc(C(=O)NC3CCS(=O)(=O)CC3)nc2C(=O)N2CCC[C@@H]2C)cn1)C(F)(F)F [Example 187, 5-(4-(Difluoromethyl)-6-(((S)-1,1,1-trifluoropropan-2-yl)amino)pyridine-3-yl)-N-(1,1-dioxidotetrahydro-2H-thiopyran-4-yl)-4-((S)-2-methylpyrrolidine-1-carbonyl)thiazole-2-carboxamide]	6.8 nM	85* %	140 nM	–	–	–	–	–
C[C@H](Nc1cc(C(F)F)c(-c2sc(C(=O)N[C@H]3CC[C@@H]3O)nc2C(=O)N2CCC[C@@H]2C)cn1)C(F)(F)F (relative stereo) [Example 388, 5-(4-(Difluoromethyl)-6-(((S)-1,1,1-trifluoropropan-2-yl)amino)pyridin-3-yl)-N-((1S*,2S*)-2-hydroxycyclobutyl)-4-((S)-2-methylpyrrolidine-1-carbonyl)thiazole-2-carboxamide]	8.6 nM	–	–	103%	85 nM	–	–	–
C[C@H]1CCCN1C(=O)c1nc(C(=O)NCC(C)(C)O)sc1-c1cnc(NCC2(C(F)(F)F)CC2)cc1C(F)(F)F [Example 125]	2.4 nM	100* %	59 nM	–	–	–	–	–
CC[C@H](Nc1cc(C(F)F)c(-c2sc(C(=O)N[C@H](C)[C@H](C)O)nc2C(=O)N2CCC[C@@H]2C)cn1)C(F)(F)F (relative stereo) [Example 218, 5-(4-(Difluoromethyl)-6-(((S)-1,1,1-trifluorobutan-2-yl)amino)pyridin-3-yl)-N-((2R*,3S*)-3-hydroxybutan-2-yl)-4-((S)-2-methylpyrrolidine-1-carbonyl)thiazole-2-carboxamide]	7.8 nM	111* %	45 nM	–	–	–	–	–
C[C@H]1CC(F)(F)CN1C(=O)c1nc(C(=O)N[C@H]2C[C@H](O)C2)sc1-c1cnc(NC(C)(C)C)cc1C(F)F [Example 429, 5-(6-(tert-Butylamino)-4-(difluoromethyl)pyridin-3-yl)-4-((S)-4,4-difluoro-2-methylpyrrolidine-1-carbonyl)-N-((1r,3S)-3-hydroxycyclobutyl)thiazole-2-carboxamide]	2.5 nM	–	–	–	9.5 nM	113%	–	–
C[C@H]1CCCN1C(=O)c1nc(C(=O)NC2(CO)CC2)sc1-c1cnc(NC(C)(C)C)cc1C(F)(F)F [Example 263, 5-[6-(tert-Butylamino)-4-(trifluoromethyl)-3-pyridyl]-N-[1-(hydroxymethyl)cyclopropyl]-4-[(2S)-2-methylpyrrolidine-1-carbonyl]thiazole-2-carboxamide]	1.1 nM	–	–	107%	6.6 nM	–	–	–
C[C@@H](NC(=O)c1nc(C(=O)N2C3CCC2CC3)c(-c2cnc(N[C@@H](C3CC3)C(F)(F)F)cc2C(F)F)s1)C(C)(C)O [Example 316, 4-((1s,4s)-7-Azabicyclo[2.2.1]heptane-7-carbonyl)-5-(6-(((S)-1-cyclopropyl-2,2,2-trifluoroethyl)amino)-4-(difluoromethyl)pyridin-3-yl)-N—((R)-3-hydroxy-3-methylbutan-2-yl)thiazole-2-carboxamide]	2.9 nM	–	–	108%	–	–	–	32 nM
C[C@H]1CCCN1C(=O)c1nc(C(=O)N2CC[C@](C)(O)C2)sc1-c1cnc(NC(C)(C)C)cc1C(F)(F)F (relative stereo) [Example 365, (5-(6-(tert-Butylamino)-4-(trifluoromethyl)pyridin-3-yl)-2-((S*)-3-hydroxy-3-methylpyrrolidine-1-carbonyl)thiazol-4-yl)((S)-2-methylpyrrolidin-1-yl)methanone]	8.1 nM	–	–	–	52 nM	–	92%	–

The remaining compounds from weak to strong by Kd [1], led by results:

Kd [1]	RORγt (FL) Reporter Assay B or C, % inhibition (value marked *) (full-length human RORγt; Conditions B or C)	IC50 (full-length human RORγt; [2])	inhibition at 3 µM (full-length human RORγt; [3])	IC50 (full-length human RORγt; [4])	inhibition at 0.33 µM (full-length human RORγt; at 0.33 μM compound concentration, read-out: RORγt (FL) Reporter Assay B or C, % inhibition)	inhibition at 1 µM (full-length human RORγt; at 1 μM compound concentration, read-out: RORγt (FL) Reporter Assay B or C, % inhibition)	SMILES	IC50 (full-length human RORγt; RORγt (FL) Reporter Assay B or C, IC50)
2 nM	–	–	93%	11 nM	–	–	C[C@H]1CC(F)(F)CN1C(=O)c1nc(C(=O)N[C@H]2C[C@H](O)C2)sc1-c1cnc(NC2(C)CCC2)cc1C(F)F [Example 327, 4-((S)-4,4-Difluoro-2-methylpyrrolidine-1-carbonyl)-5-(4-(difluoromethyl)-6-((1-methylcyclobutyl)amino)pyridin-3-yl)-N-((1r,3S)-3-hydroxycyclobutyl)thiazole-2-carboxamide]	–
1.1 nM	–	–	103%	42 nM	–	–	C[C@H]1CCCN1C(=O)c1nc(C(=O)NCC(O)C(F)(F)F)sc1-c1cnc(NC(C)(C)C)cc1C(F)(F)F (stereo in doubt) [Example 352, 5-[6-(tert-Butylamino)-4-(trifluoromethyl)-3-pyridyl]-4-(2-methylpyrrolidine-1-carbonyl)-N-(3,3,3-trifluoro-2-hydroxy-propyl)thiazole-2-carboxamide]	–
1.1 nM	–	–	103%	38 nM	–	–	CC[C@H](Nc1cc(C(F)F)c(-c2sc(C(=O)N[C@H](C)CO)nc2C(=O)N2CC(F)(F)C[C@@H]2C)cn1)C(F)(F)F [Example 423, 4-[(2S)-4,4-Difluoro-2-methyl-pyrrolidine-1-carbonyl]-5-[4-(difluoromethyl)-6-[[(1S)-1-(trifluoromethyl)propyl]amino]-3-pyridyl]-N-[(1R)-2-hydroxy-1-methyl-ethyl]thiazole-2-carboxamide]	–
0.36 nM	–	–	107%	20 nM	–	–	C[C@H]1CC(F)(F)CN1C(=O)c1nc(C(=O)NC2CCS(=O)(=O)CC2)sc1-c1cnc(NC(C)(C)C)cc1C(F)F [Example 431, 5-[6-(tert-Butylamino)-4-(difluoromethyl)-3-pyridyl]-4-[(2S)-4,4-difluoro-2-methyl-pyrrolidine-1-carbonyl]-N-(1,1-dioxothian-4-yl)thiazole-2-carboxamide]	–
0.18 nM	98* %	16 nM	–	–	–	–	C[C@H]1CC(F)(F)CN1C(=O)c1nc(C(=O)N[C@H]2COC[C@@H]2O)sc1-c1cnc(NC2(C)CCC2)cc1C(F)(F)F [Example 186]	–
0.15 nM	–	–	–	8 nM	–	–	C[C@H]1CCCN1C(=O)c1nc(C(=O)N[C@@H]2CCC[C@H]2O)sc1-c1cnc(NC(C)(C)C)cc1C(F)(F)F [Example 351, 5-[6-(tert-Butylamino)-4-(trifluoromethyl)-3-pyridyl]-N-[(1R,2R)-2-hydroxycyclopentyl]-4-[(2S)-2-methylpyrrolidine-1-carbonyl]thiazole-2-carboxamide]	–

From US10975068B2, “6-aminopyridin-3-yl thiazoles as modulators of RORγT” (Janssen Pharmaceutica NV, priority 2016, dated 2021)
